From the supplement of paper PMC11061612

Experiments:
Assay in all cases: combination Emax (second highest fraction inhibited in the dose matrix, 72 h); higher = more inhibition; extreme values may be limits of the assay
[1] = system: 5637 (Bladder Carcinoma)
Procedure, shortened: (§1)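 Bliss excess equals the observed combination effect minus the expected value EA + EB − EA·EB, where EA and EB are the effects of each agent alone. Combination Emax is the second-highest inhibition within the matrix. Inhibition was scaled from CellTiter-Glo 2.0 luminescence, with 0 set by vehicle wells and 1 by blank wells, after 72 hours of two-drug dosing of cells plated in 1536-well plates.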

[2] = system: A101D (Melanoma)
Procedure, shortened: as §1

[3] = system: A204 (Rhabdomyosarcoma)
Procedure, shortened: as §1

[4] = system: A253 (Head and Neck Carcinoma)
Procedure, shortened: as §1

[5] = system: AU565 (Breast Carcinoma)
Procedure, shortened: as §1

[6] = system: CAL-27 (Oral Cavity Carcinoma)
Procedure, shortened: as §1

[7] = system: EPLC-272H (Other Solid Carcinomas)
Procedure, shortened: as §1

[8] = system: ESO26 (Esophageal Adenocarcinoma)
Procedure, shortened: as §1

[9] = system: EW-7 (Ewing's Sarcoma)
Procedure, shortened: as §1

[10] = system: HT55 (Colorectal Carcinoma)
Procedure, shortened: as §1

[11] = system: JHU-022 (Oral Cavity Carcinoma)
Procedure, shortened: as §1

[12] = system: KYSE-220 (Esophageal Squamous Cell Carcinoma)
Procedure, shortened: as §1

[13] = system: NCI-H1703 (Squamous Cell Lung Carcinoma)
Procedure, shortened: as §1

[14] = system: NCI-H2087 (Lung Adenocarcinoma)
Procedure, shortened: as §1

[15] = system: NCI-H2228 (Lung Adenocarcinoma)
Procedure, shortened: as §1

[16] = system: NCI-H716 (Colorectal Carcinoma)
Procedure, shortened: as §1

[17] = system: OACp4C (Esophageal Adenocarcinoma)
Procedure, shortened: as §1

[18] = system: PEO1 (Ovarian Carcinoma)
Procedure, shortened: as §1

[19] = system: UACC-812 (Breast Carcinoma)
Procedure, shortened: as §1

[20] = system: huH-1 (Hepatocellular Carcinoma)
Procedure, shortened: as §1

SMILES	combination Emax [1]	combination Emax [2]	combination Emax [3]	combination Emax [4]	combination Emax [5]	combination Emax [6]	combination Emax [7]	combination Emax [8]	combination Emax [9]	combination Emax [10]	combination Emax [11]	combination Emax [12]	combination Emax [13]	combination Emax [14]	combination Emax [15]	combination Emax [16]	combination Emax [17]	combination Emax [18]	combination Emax [19]	combination Emax [20]
CC1(C)CCC(CN2CCN(c3ccc(C(=O)NS(=O)(=O)c4ccc(NCC5CCOCC5)c([N+](=O)[O-])c4)c(Oc4cnc5[nH]ccc5c4)c3)CC2)=C(c2ccc(Cl)cc2)C1 [Venetoclax] + C=CCn1c(=O)c2cnc(Nc3ccc(N4CCN(C)CC4)cc3)nc2n1-c1cccc(C(C)(C)O)n1 [AZD1775] (first compound max 1 µM, partner max 1 µM)	0.861	0.736	0.325	0.313	0.672	0.328	0.761	0.682	0.974	0.664	0.388	0.832	0.977	0.401	0.494	0.377	0.897	0.337	0.0382	0.501
CC1(C)CCC(CN2CCN(c3ccc(C(=O)NS(=O)(=O)c4ccc(NCC5CCOCC5)c([N+](=O)[O-])c4)c(Oc4cnc5[nH]ccc5c4)c3)CC2)=C(c2ccc(Cl)cc2)C1 [Venetoclax] + CCN(CCO)CCCOc1ccc2c(Nc3cc(CC(=O)Nc4cccc(F)c4)[nH]n3)ncnc2c1 [AZD2811] (first compound max 1 µM, 7x7, partner max 1 µM)	0.607	0.477	0.368	0.268	0.181	0.43	0.371	0.126	0.887	0.235	0.292	0.299	0.523	0.176	0.253	0.198	0.665	0.252	0.186	0.191
CC1(C)CCC(CN2CCN(c3ccc(C(=O)NS(=O)(=O)c4ccc(NCC5CCOCC5)c([N+](=O)[O-])c4)c(Oc4cnc5[nH]ccc5c4)c3)CC2)=C(c2ccc(Cl)cc2)C1 [Venetoclax] + CN(C)CCCOc1ccc(-c2ccc3ncc4c(c3c2)n(C2CCOCC2)c(=O)n4C)cn1 [AZD0156] (first compound max 1 µM, 7x7, partner max 1 µM)	0.15	0.365	0.31	0.178	0.234	0.173	0.395	0.0967	0.944	0.173	0.167	0.195	0.407	0.149	0.306	0.0954	0.224	0.134	0.146	0.171
CC1(C)CCC(CN2CCN(c3ccc(C(=O)NS(=O)(=O)c4ccc(NCC5CCOCC5)c([N+](=O)[O-])c4)c(Oc4cnc5[nH]ccc5c4)c3)CC2)=C(c2ccc(Cl)cc2)C1 [Venetoclax] + COc1cc(Nc2ncc3c(n2)-c2ccc(Cl)cc2C(c2c(F)cccc2OC)=NC3)ccc1C(=O)O [Alisertib] (first compound max 1 µM, 7x7, partner max 10 µM)	0.778	0.632	0.431	0.444	0.504	0.689	0.514	0.198	0.932	0.347	0.382	0.379	0.554	0.177	0.396	0.82	0.72	0.276	0.224	0.257
CC1(C)CCC(CN2CCN(c3ccc(C(=O)NS(=O)(=O)c4ccc(NCC5CCOCC5)c([N+](=O)[O-])c4)c(Oc4cnc5[nH]ccc5c4)c3)CC2)=C(c2ccc(Cl)cc2)C1 [Venetoclax] + C[C@@H]1COCCN1C2=NC(=NC(=C2)C3(CC3)[S@](=N)(=O)C)C4=C5C=CNC5=NC=C4 [AZD6738] (first compound max 1 µM, 7x7, partner max 10 µM)	0.69	0.91	0.479	0.804	0.382	0.425	0.873	0.508	0.959	0.58	0.593	0.875	0.883	0.53	0.476	0.436	0.711	0.48	0.29	0.597
CC1(C)CCC(CN2CCN(c3ccc(C(=O)NS(=O)(=O)c4ccc(NCC5CCOCC5)c([N+](=O)[O-])c4)c(Oc4cnc5[nH]ccc5c4)c3)CC2)=C(c2ccc(Cl)cc2)C1 [Venetoclax] + C[C@@H](Nc1cc(F)cc(F)c1)c1cc(C(=O)N(C)C)cc2c(=O)cc(N3CCOCC3)oc12 [AZD8186] (first compound max 1 µM, 7x7, partner max 3 µM)	0.141	0.387	0.327	0.103	0.225	0.182	0.419	0.0996	0.95	0.14	0.314	0.141	0.422	0.08	0.293	0.225	0.31	0.0947	0.0679	0.152
CC1(C)CCC(CN2CCN(c3ccc(C(=O)NS(=O)(=O)c4ccc(NCC5CCOCC5)c([N+](=O)[O-])c4)c(Oc4cnc5[nH]ccc5c4)c3)CC2)=C(c2ccc(Cl)cc2)C1 [Venetoclax] + Cc1cc2ncnn2cc1Nc1ncc2c(n1)n(C1CCOCC1)c(=O)n2C [AZD7648] (first compound max 1 µM, 7x7, partner max 10 µM)	0.251	0.451	0.408	0.212	0.295	0.174	0.514	0.134	0.95	0.205	0.221	0.145	0.465	0.133	0.4	0.203	0.338	0.163	0.22	0.162
CC1(C)CCC(CN2CCN(c3ccc(C(=O)NS(=O)(=O)c4ccc(NCC5CCOCC5)c([N+](=O)[O-])c4)c(Oc4cnc5[nH]ccc5c4)c3)CC2)=C(c2ccc(Cl)cc2)C1 [Venetoclax] + Cn1cnc2c(F)c(Nc3ccc(Br)cc3Cl)c(C(=O)NOCCO)cc21 [Selumetinib] (first compound max 1 µM, 7x7, partner max 3 µM)	0.264	0.568	0.206	0.185	0.201	0.466	0.506	0.137	0.887	0.728	0.42	0.31	0.178	0.378	0.185	0.366	0.488	0.19	0.0864	0.114
